{
  "source": "patent US10829464B2",
  "about": "“Benzoheterocyclic alkylamine compounds and use thereof” (priority 2016, dated 2020)",
  "key": {"[1]": {"tested_on": "Staphylococcus aureus subsp. aureus str. strain Newman", "assay": "Preliminary screening assay of inhibition of staphyloxanthin synthesis", "assay_type": "cell-based", "protocol": "Strains used for assay: freshly activated wild-type Staphylococcus aureus subsp. aureus str. strain Newman and its homologous mutant strain having crtN insertion (without staphyloxanthin synthesis).\nMedium for assay: Tryptone Soy broth (TSB), a product from Oxid Corporation, the United Kingdom, which was formulated with distilled water, sterilized at 121° C. for 15 min for later use.\nMethod of Preliminary Screening Assay:\n(1) Preparation of compound: the compound of the invention was dissolved in dimethyl sulfoxide (DMSO) to prepare a stock solution having a concentration of 10 mM; 400 μL of DMSO was added to 100 μL of the stock solution to get a dilution with a concentration of 2 mM; 250 μL (2 mM) of the dilution was taken after mixing, and an equal amount of DMSO was added thereto for 2-fold dilution to get a solution with a concentration of […] for later use.\n(2) Culture of the strain: single colonies of strain Newman were picked from TSA plates into a test tube containing 4 mL of sterile TSB medium, and cultured at 37° C. and 250 rpm for 12 h for later use."}, "S. aureus strain Newman": {"tested_on": "S. aureus strain Newman", "assay": "IC50 determination of inhibition of staphyloxanthin synthesis", "assay_type": "cell-based", "conditions": "Staphylococcus aureus", "protocol": "(§1) Selection of compound concentrations: based on the preliminary screening results, the ability of each compound to inhibit staphyloxanthin synthesis was determined. […] According to the assay results, 10 different concentration gradients were designed for each compound, such that the ability to inhibit staphyloxanthin synthesis comprised substantially from 0% to 100%.\n(§2) Culture of the strains: single colonies of strain Newman and crtN mutant strain were picked from TSA plates, added into test tubes containing 4 mL of sterile TSB medium, and cultured at 37° C. and 250 rpm for 12 h for later use.\n(§3) The relative level of staphyloxanthin synthesis at each concentration of the compound of the invention=A450 (sample)/A450 (negative control)*100%. With the molar concentration of the compound as the abscissa and the relative level of staphyloxanthin synthesis as the ordinate, a curve fitting of inhibitor concentration-inhibition rate (log(inhibitor) vs response) was performed in Graphpad prism 5.0 software, and the IC50 of the compound for inhibiting staphyloxanthin synthesis was calculated by software based on the fitting results.\nS. aureus was selected for IC50 determination with respect to activity of inhibiting staphyloxanthin synthesis. […]"}, "HS663 (CHN)": {"tested_on": "HS663 (CHN)", "assay": "IC50 of inhibition of staphyloxanthin synthesis in MRSA strain", "assay_type": "cell-based", "conditions": "Staphylococcus aureus, read-out: Inhibitory activity on staphyloxanthin IC50", "protocol": "as §1, §2, §3\n(§4) Compound IA-25 was used as a representative compound. In addition to replacement of S aureus strain Newman with other MRSA strains as described in Table 3, the rest of the method is the same as in Examples 61-62."}, "LRSA205 (CHN)": {"tested_on": "LRSA205 (CHN)", "assay": "IC50 of inhibition of staphyloxanthin synthesis in MRSA strain", "assay_type": "cell-based", "conditions": "Staphylococcus aureus, read-out: Inhibitory activity on staphyloxanthin IC50", "protocol": "as §1, §2, §3, §4"}, "NF65Y (CHN)": {"tested_on": "NF65Y (CHN)", "assay": "IC50 of inhibition of staphyloxanthin synthesis in MRSA strain", "assay_type": "cell-based", "conditions": "Staphylococcus aureus, read-out: Inhibitory activity on staphyloxanthin IC50", "protocol": "as §1, §2, §3, §4"}, "NRS100 (USA)": {"tested_on": "NRS100 (USA)", "assay": "IC50 of inhibition of staphyloxanthin synthesis in MRSA strain", "assay_type": "cell-based", "conditions": "Staphylococcus aureus, NRS100, read-out: Inhibitory activity on staphyloxanthin IC50", "protocol": "as §1, §2, §3, §4"}, "NRS108 (FRA)": {"tested_on": "NRS108 (FRA)", "assay": "IC50 of inhibition of staphyloxanthin synthesis in MRSA strain", "assay_type": "cell-based", "conditions": "Staphylococcus aureus, NRS108, read-out: Inhibitory activity on staphyloxanthin IC50", "protocol": "as §1, §2, §3, §4"}, "NRS271 (SPA)": {"tested_on": "NRS271 (SPA)", "assay": "IC50 of inhibition of staphyloxanthin synthesis in MRSA strain", "assay_type": "cell-based", "conditions": "Staphylococcus aureus, NRS271, read-out: Inhibitory activity on staphyloxanthin IC50", "protocol": "as §1, §2, §3, §4"}, "NRS70 (JPN)": {"tested_on": "NRS70 (JPN)", "assay": "IC50 of inhibition of staphyloxanthin synthesis in MRSA strain", "assay_type": "cell-based", "conditions": "Staphylococcus aureus, NRS70, read-out: Inhibitory activity on staphyloxanthin IC50", "protocol": "as §1, §2, §3, §4"}, "CrtN": {"target": "CrtN (Staphylococcus aureus, UniProt O07855)", "sequence (O07855 whole entry)": "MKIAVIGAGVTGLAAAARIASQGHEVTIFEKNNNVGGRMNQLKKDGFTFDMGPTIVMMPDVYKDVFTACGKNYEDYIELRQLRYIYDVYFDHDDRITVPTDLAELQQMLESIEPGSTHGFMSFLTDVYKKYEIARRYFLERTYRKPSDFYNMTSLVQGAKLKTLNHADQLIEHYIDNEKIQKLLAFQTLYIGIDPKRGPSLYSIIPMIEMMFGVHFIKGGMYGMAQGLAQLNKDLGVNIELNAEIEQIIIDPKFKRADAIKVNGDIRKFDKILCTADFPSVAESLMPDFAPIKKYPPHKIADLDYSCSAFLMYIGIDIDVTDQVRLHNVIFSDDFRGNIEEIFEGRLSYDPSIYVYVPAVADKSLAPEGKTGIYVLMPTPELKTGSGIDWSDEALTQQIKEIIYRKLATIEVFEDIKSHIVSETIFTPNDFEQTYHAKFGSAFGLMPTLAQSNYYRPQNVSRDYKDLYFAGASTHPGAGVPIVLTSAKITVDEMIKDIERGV", "assay": "biochemical", "quoted_text": "(1) Preparation of Diapophytoene Emulsion as Substrate […]\nAfter completion of the reaction, the reaction was terminated by adding 500 μL of methanol, and the reaction solution was transferred to a 15 mL centrifuge tube; the reaction solution was added with 700 μL of chloroform, and vortexed thoroughly to extract the reacted staphyloxanthin, and then centrifuged at 7000 rpm for 3 min, and the chloroform layer was carefully pipetted; the remaining reaction solution was extracted by further adding 500 μL of chloroform thereto, and the extracts were combined and concentrated to dryness under vacuum; the concentrated product was dissolved by adding 200 μL of chloroform, and pipetted into a 96-well microplate, and then the absorbance was measured at 450 nm for quantification of the CrtN product diaponeurosporene."}, "[2]": {"tested_on": "wild-type S. aureus Newman strain", "assay": "Verification assay using CrtN as a target (HPLC of carotenoid extract)", "assay_type": "cell-based, Staphylococcus aureus", "conditions": "100 μM added to wild-type strain Newman, 440 nm"}, "S. aureus [3]": {"tested_on": "S. aureus", "assay": "Hydrogen peroxide killing assay", "assay_type": "cell-based, Staphylococcus aureus", "conditions": "four strains, 1.5% hydrogen peroxide, 1 h", "from_the_text": "(§5) Compound IA-25 was used as a representative compound. The main object of the invention was to impair the ability of bacteria to resist immunological killing in vivo by inhibiting staphyloxanthins synthesis.\nThe calculated survival rate of bacteria after hydrogen peroxide killing=(count of bacteria grown in sample after hydrogen peroxide killing×dilution factor)/(count of bacteria grown in control group×dilution factor)×100%."}, "S. aureus [4]": {"tested_on": "S. aureus", "assay": "Human whole blood killing assay", "assay_type": "cell-based, Staphylococcus aureus", "conditions": "four strains, fresh human blood, 6 h", "from_the_text": "as §5\nThe calculated survival rate of bacteria after blood killing=(count of bacteria grown in sample after blood killing×dilution factor)/(count of bacteria grown in control group×dilution factor)×100%."}, "Trichophyton rubrum": {"tested_on": "Trichophyton rubrum", "assay": "In vitro antifungal assay (micro liquid-based dilution)", "assay_type": "cell-based", "conditions": "read-out: Antifungal Activities, MIC80"}, "CYP enzyme subtype 1A2": {"target": "CYP enzyme subtype 1A2 (Homo sapiens, UniProt P05177)", "sequence (P05177 whole entry)": "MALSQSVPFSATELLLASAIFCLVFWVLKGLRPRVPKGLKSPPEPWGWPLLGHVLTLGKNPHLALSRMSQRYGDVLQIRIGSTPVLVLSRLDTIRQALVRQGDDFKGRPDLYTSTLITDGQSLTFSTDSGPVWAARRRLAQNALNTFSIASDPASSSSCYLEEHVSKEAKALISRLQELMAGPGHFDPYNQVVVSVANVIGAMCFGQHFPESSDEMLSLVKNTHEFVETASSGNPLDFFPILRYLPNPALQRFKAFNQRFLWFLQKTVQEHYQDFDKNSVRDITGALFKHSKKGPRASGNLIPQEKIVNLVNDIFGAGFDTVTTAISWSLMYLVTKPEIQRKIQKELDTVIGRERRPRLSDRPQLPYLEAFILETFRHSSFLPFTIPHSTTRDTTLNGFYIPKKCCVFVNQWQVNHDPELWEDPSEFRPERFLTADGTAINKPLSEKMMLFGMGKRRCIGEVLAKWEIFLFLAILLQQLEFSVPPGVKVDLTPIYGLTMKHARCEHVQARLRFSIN", "assay": "Inhibition assay on hepatic CYP450 enzyme", "assay_type": "in vitro ADME", "conditions": "CYP 1A2; read-out: Half inhibitory concentration (IC50)"}, "CYP enzyme subtype 2C9": {"target": "CYP enzyme subtype 2C9 (Homo sapiens, UniProt P11712)", "sequence (P11712 whole entry)": "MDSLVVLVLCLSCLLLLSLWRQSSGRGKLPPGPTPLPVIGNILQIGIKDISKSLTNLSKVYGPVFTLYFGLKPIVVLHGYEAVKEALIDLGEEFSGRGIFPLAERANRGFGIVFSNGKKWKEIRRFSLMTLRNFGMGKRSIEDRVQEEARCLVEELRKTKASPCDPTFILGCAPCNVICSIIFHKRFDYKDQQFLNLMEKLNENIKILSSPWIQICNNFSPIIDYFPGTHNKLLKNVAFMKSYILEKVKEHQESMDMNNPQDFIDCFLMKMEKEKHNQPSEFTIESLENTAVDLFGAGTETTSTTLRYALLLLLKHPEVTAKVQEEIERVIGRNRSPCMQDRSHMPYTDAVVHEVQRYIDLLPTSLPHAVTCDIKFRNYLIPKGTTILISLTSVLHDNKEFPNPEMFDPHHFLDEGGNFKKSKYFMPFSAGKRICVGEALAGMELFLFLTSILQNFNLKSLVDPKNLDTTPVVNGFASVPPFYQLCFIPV", "assay": "Inhibition assay on hepatic CYP450 enzyme", "assay_type": "in vitro ADME", "conditions": "CYP 2C9; read-out: Half inhibitory concentration (IC50)"}, "CYP enzyme subtype 2D6": {"target": "CYP enzyme subtype 2D6 (Homo sapiens, UniProt P10635)", "sequence (P10635 whole entry)": "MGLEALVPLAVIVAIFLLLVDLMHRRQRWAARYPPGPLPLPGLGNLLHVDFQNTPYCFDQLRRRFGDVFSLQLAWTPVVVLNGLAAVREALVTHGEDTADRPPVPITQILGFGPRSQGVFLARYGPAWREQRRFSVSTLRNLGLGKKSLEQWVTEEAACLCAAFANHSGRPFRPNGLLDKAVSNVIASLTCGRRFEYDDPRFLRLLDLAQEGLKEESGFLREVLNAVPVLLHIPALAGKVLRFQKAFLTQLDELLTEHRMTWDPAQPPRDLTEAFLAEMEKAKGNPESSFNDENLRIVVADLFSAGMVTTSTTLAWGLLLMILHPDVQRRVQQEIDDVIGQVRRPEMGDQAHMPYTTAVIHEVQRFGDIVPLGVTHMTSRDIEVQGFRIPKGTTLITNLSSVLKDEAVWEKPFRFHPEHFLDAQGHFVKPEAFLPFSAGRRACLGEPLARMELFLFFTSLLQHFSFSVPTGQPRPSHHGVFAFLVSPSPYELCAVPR", "assay": "Inhibition assay on hepatic CYP450 enzyme", "assay_type": "in vitro ADME", "conditions": "CYP 2D6; read-out: Half inhibitory concentration (IC50)"}, "CYP enzyme subtype 3A4M": {"target": "CYP enzyme subtype 3A4M (Homo sapiens, UniProt P08684)", "sequence (P08684 whole entry)": "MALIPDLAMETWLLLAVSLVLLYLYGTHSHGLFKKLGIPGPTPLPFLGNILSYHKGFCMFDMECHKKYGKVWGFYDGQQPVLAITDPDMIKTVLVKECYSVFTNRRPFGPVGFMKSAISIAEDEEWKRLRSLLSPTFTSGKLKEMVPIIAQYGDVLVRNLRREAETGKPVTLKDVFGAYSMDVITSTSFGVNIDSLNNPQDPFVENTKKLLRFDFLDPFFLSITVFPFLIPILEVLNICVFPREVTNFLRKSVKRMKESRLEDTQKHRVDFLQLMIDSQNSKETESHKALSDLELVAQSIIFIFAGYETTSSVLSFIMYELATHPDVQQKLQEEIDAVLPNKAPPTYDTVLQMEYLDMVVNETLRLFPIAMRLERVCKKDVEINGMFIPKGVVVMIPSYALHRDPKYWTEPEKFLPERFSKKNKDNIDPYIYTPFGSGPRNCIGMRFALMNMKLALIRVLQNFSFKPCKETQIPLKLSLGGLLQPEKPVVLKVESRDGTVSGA", "assay": "Inhibition assay on hepatic CYP450 enzyme", "assay_type": "in vitro ADME", "conditions": "CYP 3A4M; read-out: Half inhibitory concentration (IC50)"}, "CYP enzyme subtype 3A4T": {"target": "CYP enzyme subtype 3A4T (Homo sapiens, UniProt P08684)", "sequence (P08684 whole entry)": "as above", "assay": "Inhibition assay on hepatic CYP450 enzyme", "assay_type": "in vitro ADME", "conditions": "CYP 3A4T; read-out: Half inhibitory concentration (IC50)"}, "[5]": {"conditions": "rat, in vivo, 1000 mg/kg", "from_the_text": "Thirty rats weighing 180-220 g, half male and half female, were picked out and randomly divided into three groups."}, "CYP enzyme subtype 2C8": {"target": "CYP enzyme subtype 2C8 (Homo sapiens, UniProt P10632)", "sequence (P10632 whole entry)": "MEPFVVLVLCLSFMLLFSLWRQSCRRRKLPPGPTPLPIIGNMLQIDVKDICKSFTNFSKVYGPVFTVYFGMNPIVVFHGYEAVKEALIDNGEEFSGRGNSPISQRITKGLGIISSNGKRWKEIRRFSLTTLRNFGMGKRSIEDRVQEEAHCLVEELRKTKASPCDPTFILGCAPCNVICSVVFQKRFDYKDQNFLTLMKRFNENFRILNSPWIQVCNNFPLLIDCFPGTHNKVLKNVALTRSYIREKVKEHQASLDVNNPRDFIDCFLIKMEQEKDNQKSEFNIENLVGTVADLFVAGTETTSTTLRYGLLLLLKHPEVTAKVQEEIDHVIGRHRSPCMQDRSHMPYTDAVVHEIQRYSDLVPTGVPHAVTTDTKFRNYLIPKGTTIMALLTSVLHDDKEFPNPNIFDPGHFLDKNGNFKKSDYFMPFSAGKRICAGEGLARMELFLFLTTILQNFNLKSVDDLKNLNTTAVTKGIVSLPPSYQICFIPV", "assay": "Inhibition assay on hepatic CYP450 enzyme"}},
  "note": "Where two headings read alike, the source gives them in different places.",
  "data": [
    {"smiles": "CN(C/C=C/c1ccc(-c2ccccc2)cc1)Cc1coc2ccccc12", "note": "[Compound IA-25, (E)-N-methyl-N-[(benzofuran-3-yl)methylene]-3-(4-phenylphenyl)-prop-2-en-1-amine]", "values": [
      {"measurement": "colors in final photograph of inhibition of staphyloxanthin synthesis", "setting": "[1]; 50, 10, 5, 2.5, 1.25, 0.625, 0.3125 and 0 μM from left to right", "result": "white to yellow from left to right gradually"},
      {"measurement": "concentration at which staphyloxanthin synthesis is significantly inhibited", "setting": "[1]; strain Newman, 24 h culture, lowest concentration tested", "result": "≤ 0.3125", "unit": "µM"},
      {"measurement": "IC50", "setting": "S. aureus strain Newman; Newman, Table 3, read-out: Inhibitory activity on staphyloxanthin IC50", "result": "2 ± 0.1", "unit": "nM"},
      {"measurement": "IC50", "setting": "S. aureus strain Newman; S. aureus strain Newman, Table 1, read-out: IC50, inhibitory activity on staphyloxanthin synthesis", "result": "2 ± 0.1", "unit": "nM"},
      {"measurement": "IC50", "setting": "HS663 (CHN)", "result": "0.02 ± 0.01", "unit": "nM"},
      {"measurement": "IC50", "setting": "LRSA205 (CHN)", "result": "10.5 ± 0.4", "unit": "nM"},
      {"measurement": "IC50", "setting": "NF65Y (CHN)", "result": "1 ± 0.02", "unit": "nM"},
      {"measurement": "IC50", "setting": "NRS100 (USA)", "result": "1.2 ± 0.1", "unit": "nM"},
      {"measurement": "IC50", "setting": "NRS108 (FRA)", "result": "5.6 ± 0.02", "unit": "nM"},
      {"measurement": "IC50", "setting": "NRS271 (SPA)", "result": "0.4 ± 0.01", "unit": "nM"},
      {"measurement": "IC50", "setting": "NRS70 (JPN)", "result": "1.7 ± 0.01", "unit": "nM"},
      {"measurement": "IC50", "setting": "CrtN", "result": 373, "unit": "nM"},
      {"measurement": "HPLC absorption peaks of carotenoid extract", "setting": "[2]", "result": "absorption peaks at the original peak position disappeared again"},
      {"measurement": "bacterial survival rate after hydrogen peroxide killing", "setting": "S. aureus [3]", "result": "less than 5%"},
      {"measurement": "bacterial survival rate after human blood killing", "setting": "S. aureus [4]", "result": "less than 3%"},
      {"measurement": "MIC80", "setting": "Trichophyton rubrum", "result": 64, "unit": "µg/mL"},
      {"measurement": "IC50", "setting": "CYP enzyme subtype 1A2", "result": 5690, "unit": "nM"},
      {"measurement": "IC50", "setting": "CYP enzyme subtype 2C9", "result": "> 10000", "unit": "nM"},
      {"measurement": "IC50", "setting": "CYP enzyme subtype 2D6", "result": 3200, "unit": "nM"},
      {"measurement": "IC50", "setting": "CYP enzyme subtype 3A4M", "result": "> 10000", "unit": "nM"},
      {"measurement": "IC50", "setting": "CYP enzyme subtype 3A4T", "result": "> 10000", "unit": "nM"},
      {"measurement": "abnormality in the dissected organs", "setting": "[5]", "result": "there was not any abnormality in the dissected organs"},
      {"measurement": "death or poor behavior events", "setting": "[5]", "result": "did not result in any death or poor behavior events in the rats"},
      {"measurement": "bioavailability", "setting": "in vivo", "result": "15 to 45", "unit": "%"},
      {"measurement": "IC50", "setting": "CYP enzyme subtype 2C8", "result": "> 10000", "unit": "nM"}
    ]}
  ]
}
